# Values quoted from earlier work, collected in article PMC11998001, “Towards P2X4 Positron Emission Tomography Tracing” (Journal of Medicinal Chemistry, 2025).
# Columns and labels:
# [1] = system: NLRP3 Inflammasome in macrophages; parameters: method as in PMID 39805099
# [2] = pH 7.4
# [3] = for MLM stability: mouse, microsomes, 1.5 h
# [4] = for blood-brain barrier (BBB) permeation of radioligand (in words): in vivo, 18F-radiolabeled form
# [5] = parameters: method as in PMID 33125712
# tactile allodynia = system: tactile allodynia; parameters: method as in PMID 33125712
smiles,measurement,setting,value
Cc1cc(F)ccc1S(=O)(=O)Nc1ccc(N2C(=O)CC(=O)Nc3c2ccc2ccccc32)cc1 [Erlitz 44],NLRP3 inflammasome activation / interleukin-1β release (in words),[1],able to block NLRP3 inflammasome activation
same,logD7.4,[2],3.59
same,stability in mouse microsomes (in words),[3],higher stability in mouse microsomes
same,MLM stability,[3],93%
Cc1cc([18F])ccc1S(=O)(=O)Nc1ccc(N2C(=O)CC(=O)Nc3c2ccc2ccccc32)cc1 [Erlitz [^18F]44],in vivo metabolism of radioligand (in words),[4],"rapid, in vivo metabolism"
same,blood-brain barrier (BBB) permeation of radioligand (in words),[4],almost no blood–brain barrier (BBB) permeation
O=C1CN=C(c2cccc(Br)c2)c2oc3ccccc3c2N1 [5-BDBD],water solubility (in words),,low water solubility
Cc1cc(F)ccc1CS(=O)(=O)Nc1ccc(N2C(=O)CC(=O)Nc3c2ccc2ccccc32)cc1 [Erlitz 64],NLRP3 inflammasome activation / interleukin-1β release (in words),[1],able to block NLRP3 inflammasome activation
same,logD7.4,[2],3.68
same,MLM stability,[3],64%
NS(=O)(=O)c1cc(NC(=O)Cc2ccccc2)ccc1Oc1cccc(Cl)c1 [BAY-1797],water solubility (in words),,high water solubility
same,blood-brain barrier permeation (in words),[5],does not permeate the blood–brain barrier
Cc1cc([18F])ccc1CS(=O)(=O)Nc1ccc(N2C(=O)CC(=O)Nc3c2ccc2ccccc32)cc1 [Erlitz [^18F]64],in vivo metabolism of radioligand (in words),[4],"rapid, in vivo metabolism"
same,blood-brain barrier (BBB) permeation of radioligand (in words),[4],almost no blood–brain barrier (BBB) permeation
CNCC[C@H](Oc1cccc2ccccc12)c1cccs1 [Duloxetine],effect on tactile allodynia (in words),tactile allodynia,reverse tactile allodynia
CC(C)c1cc(Br)c(NC(=O)Nc2cccnc2)c(Br)c1 [BX-430],antagonist potency at the hP2X4 receptor (in words),hP2X4R; allosteric antagonist,submicromolar
O=C1CC(=O)N(c2cccc(-c3noc(=S)[nH]3)c2)c2ccc3ccccc3c2N1 [NP-1815-PX],water solubility (in words),,high potency and water solubility
Cc1ccc(S(=O)(=O)N2c3ccccc3Oc3ccccc32)cc1 [PSB-12062],water solubility (in words),,more water-soluble than the first
Fc1ccc([C@@H]2CCNC[C@H]2COc2ccc3c(c2)OCO3)cc1 [Paroxetine],effect on tactile allodynia (in words),tactile allodynia,reverse tactile allodynia
O=C(OCc1ccccc1)N1c2ccccc2Oc2ccccc21 [PSB-12054],IC50,"hP2X4R; representative P2X4 antagonists, Figure 2",190 nM
